Measured values as given in article PMC7812675 (ACS Medicinal Chemistry Letters, 2020).
Where two headings read alike, the source gives them in different places. Square brackets hold non-standard residues; d marks the D form. Peptide text beside a SMILES is read from it. Hyp = O=C(O)[C@@H]1C[C@@H](O)CN1

Legend:
MsCI4 (MsCI4WW/FF) [1] = target: T1, MsCI4 (MsCI4WW/FF) (Magnetospirillum gryphiswaldense, UniProt A4TVL0, W36F/W59F); details: MANT-uracil reporter
[2] = target: T2, VHL/EloB/EloC complex (VBC) (Homo sapiens, UniProt P40337); assay: Competitive MST assay, unlabeled peptides against VHL and FAM reporter peptide; type: binding; details: ± confidence interval
T2 construct: VHL54-213 fused to an N-terminal TwinStrep-tag; TwinStrep-tag (TEV site) (N, cleaved yes); made in house; host or cells: E. coli BL21(DE3)

[3] = target: T3, human CRBN (hCRBN) thalidomide binding domain (hTBD) (Homo sapiens, UniProt Q96SW2); assay: Initial fluorescence (quenching) titration of hTBD against BODIPY-uracil; details: initial fluorescence measurement, 200 nM BODIPY-uracil
T3 construct: 319-425; GST (thrombin site) (N, cleaved yes); made in house; host or cells: E. coli Rosetta 2(DE3)pLysS

[4] = target: T4, Magnetospirillum gryphiswaldense cereblon isoform 4 (MsCI4) (Magnetospirillum gryphiswaldense, UniProt A4TVL0); type: binding; details: initial fluorescence measurement, 200 nM BODIPY-uracil
T4 construct: made in house
T4 sequence (A4TVL0 1-124): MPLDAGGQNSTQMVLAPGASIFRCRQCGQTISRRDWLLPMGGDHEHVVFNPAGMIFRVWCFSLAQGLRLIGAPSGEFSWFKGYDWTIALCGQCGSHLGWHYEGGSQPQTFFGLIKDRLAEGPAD

[5] = target: T3, human CRBN (hCRBN) thalidomide binding domain (hTBD); assay: Competitive MST assay with BODIPY-uracil reporter and hTBD; details: for binding to hTBD in the MST assay (words; n.b., no binding): 10 µM hTBD/200 nM BODIPY-uracil
MsCI4 (MsCI4WW/FF) [6] = target: T1, MsCI4 (MsCI4WW/FF); details: cited from earlier work
[7] = target: T4, Magnetospirillum gryphiswaldense cereblon isoform 4 (MsCI4); type: binding; details: competitive DMSO titration
[8] = IC50, FAM-11mer competition, 570 nM VBC/20 nM FAM-11mer reporter
[9] = IC50, FAM-19mer competition, 80 nM VBC/20 nM FAM-19mer reporter

O=C1CN(/N=C/c2ccccc2)C(=O)N1 [1-Benzylidene-aminohydantoin, 1-benzylideneaminohydantoin]
binding to MsCI4 in the FRET assay (words) (MsCI4 (MsCI4WW/FF) [1]): absence of affinity

O=C1CN(/N=C/c2ccccc2[N+](=O)[O-])C(=O)N1 [2-NP-AHD, 1-(2-nitrobenzylideneamino)hydantoin]
binding to MsCI4 in the FRET assay (words) (MsCI4 (MsCI4WW/FF) [1]): absence of affinity

CC[C@H](C)[C@H](NC(=O)[C@H](Cc1ccc(O)cc1)NC(=O)[C@@H]1C[C@@H](O)CN1C(=O)[C@H](C)NC(=O)[C@H](CC(C)C)NC(=O)[C@H](C)NC(=O)[C@H](CCC(=O)O)NC(=O)[C@@H](N)CC(=O)O)C(=O)N1CCC[C@H]1C(=O)N[C@@H](CCSC)C(=O)N[C@@H](CC(=O)O)C(=O)O [11mer] (H-DEALA[Hyp]YIPMD-OH)
IC50 [2, 8]: 1800 ± 810 nM
IC50 [2, 9]: 1420 ± 950 nM

CC[C@H](C)[C@H](NC(=O)[C@H](Cc1ccc(O)cc1)NC(=O)[C@@H]1C[C@@H](O)CN1C(=O)[C@H](C)NC(=O)[C@H](CC(C)C)NC(=O)[C@H](C)NC(=O)[C@H](CCC(=O)O)NC(=O)[C@@H](N)CC(=O)O)C(=O)N1CCC[C@H]1C(=O)N[C@@H](CCSC)C(=O)N[C@@H](CC(=O)O)C(=O)N[C@@H](CC(=O)O)C(=O)N[C@@H](CC(=O)O)C(=O)N[C@@H](Cc1ccccc1)C(=O)N[C@@H](CCC(N)=O)C(=O)N[C@@H](CC(C)C)C(=O)N[C@@H](CCCNC(=N)N)C(=O)N[C@@H](CO)C(=O)N[C@@H](Cc1ccccc1)C(=O)O [19mer]
IC50 [2, 8]: 803 ± 450 nM
IC50 [2, 9]: 572 ± 260 nM

CC1=CC(C)=[N+]2C1=C(CCC(=O)NCCn1ccc(=O)[nH]c1=O)c1c(C)cc(C)n1[B-]2(F)F [BODIPY-uracil]
Kd [3]: 11000 nM
Kd [4]: 3800 nM

O=C1CN(/N=C/c2ccc([N+](=O)[O-])o2)C(=O)N1 [Nitrofurantoin, nitrofurantoin]
binding to hTBD in the MST assay (words; n.b., no binding) [5]: did not show any binding
binding to MsCI4 in the FRET assay (words) (MsCI4 (MsCI4WW/FF) [1]): do not show binding
binding to MsCI4 in the FRET assay (words) (MsCI4 (MsCI4WW/FF) [1]; listed as nitrofurantoin): did not show any binding

O=c1ccn([C@@H]2O[C@H](COP(=O)(O)O)[C@@H](O)[C@H]2O)c(=O)[nH]1 [UMP, uridine-5′-monophosphate]
binding to hTBD in the MST assay (words; n.b., no binding) [5]: abolished binding completely

O=c1ccn([C@@H]2O[C@H](CO)[C@@H](O)[C@H]2O)c(=O)[nH]1 [Uridine, uridine]
affinity to MsCI4 in the FRET assay (MsCI4 (MsCI4WW/FF) [6]): high affinity

DMSO
Ki as corresponding concentration of DMSO, MsCI4 [7]: 0.08 % (v/v)
Ki as corresponding concentration of DMSO, hTBD ([5]; competitive DMSO titration): 1.0 % (v/v)
